Measurements: PubChem BioAssay AID248 (DTP/NCI, 2004)
Several values for one entry are separate records, joined by “and”; a condition that tells them apart may be missing. Equal values may be shown once. Toxic doses and inconclusive results are not listed. Cut-off read from the data, not from the text of the source: active = T/C of 150% or more; inactive = T/C below 125%.

Test system: L1210 leukemia ip in BDF1 mice, survival T/C
Assay: NCI In Vivo Anticancer Drug Screen. Data for tumor model L1210 Leukemia (intraperitoneal) in B6D2F1 (BDF1) mice
Conditions: endpoint: mean survival time, higher = longer survival
Method in brief: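 Ratio derived from survival: compound-dosed mice over vehicle-dosed mice, all bearing a transplantable tumor.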

[1] = dose: 75.0 mg/kg/injection, schedule: Q01DX001 (ip), vehicle: carboxymethylcellulose (CMC)
[2] = dose: 150.0 mg/kg/injection, schedule: Q01DX001 (ip), vehicle: carboxymethylcellulose (CMC)
[3] = dose: 100.0 mg/kg/injection, schedule: Q01DX001 (ip), vehicle: Klucel (hydroxypropylcellulose) (HPC)
[4] = dose: 100.0 mg/kg/injection, schedule: Q04DX003 (ip), vehicle: Klucel (hydroxypropylcellulose) (HPC)
[5] = dose: 200.0 mg/kg/injection, schedule: Q01DX001 (ip), vehicle: Klucel (hydroxypropylcellulose) (HPC)
[6] = dose: 200.0 mg/kg/injection, schedule: Q04DX003 (ip), vehicle: Klucel (hydroxypropylcellulose) (HPC)
[7] = dose: 400.0 mg/kg/injection, schedule: Q01DX001 (ip), vehicle: Klucel (hydroxypropylcellulose) (HPC)
[8] = dose: 400.0 mg/kg/injection, schedule: Q04DX003 (ip), vehicle: Klucel (hydroxypropylcellulose) (HPC)
[9] = dose: 100.0 mg/kg/injection, schedule: Q01DX009 (ip), vehicle: saline with Tween-80
[10] = dose: 200.0 mg/kg/injection, schedule: Q01DX009 (ip), vehicle: saline with Tween-80
[11] = dose: 400.0 mg/kg/injection, schedule: Q01DX009 (ip), vehicle: saline with Tween-80
[12] = dose: 100.0 mg/kg/injection, schedule: Q01DX009 (ip), vehicle: Klucel (hydroxypropylcellulose) (HPC)
[13] = dose: 200.0 mg/kg/injection, schedule: Q01DX009 (ip), vehicle: Klucel (hydroxypropylcellulose) (HPC)
[14] = dose: 400.0 mg/kg/injection, schedule: Q01DX009 (ip), vehicle: Klucel (hydroxypropylcellulose) (HPC)
[15] = dose: 100.0 mg/kg/injection, schedule: Q04DX003 (ip), vehicle: saline with Tween-80
[16] = dose: 200.0 mg/kg/injection, schedule: Q04DX003 (ip), vehicle: saline with Tween-80
[17] = dose: 100.0 mg/kg/injection, schedule: Q01DX001 (ip), vehicle: other
[18] = dose: 200.0 mg/kg/injection, schedule: Q01DX001 (ip), vehicle: other
[19] = dose: 400.0 mg/kg/injection, schedule: Q01DX001 (ip), vehicle: other

Measured: T/C

COc1cc(CCl)c(CCl)c(OC)c1OC
inactive: [1] 96 % of control | [2] 95 % of control | dose: 300.0 mg/kg/injection, schedule: Q01DX001 (ip), vehicle: carboxymethylcellulose (CMC) 93 % of control

CSc1ncnc2c1ncn2NC(=O)C1CC(=O)N(C)C1 (stereo not drawn)
inactive: dose: 100.0 mg/kg/injection, schedule: Q01DX001 (ip), vehicle: saline 107 % of control | dose: 200.0 mg/kg/injection, schedule: Q01DX001 (ip), vehicle: saline 103 % of control | dose: 400.0 mg/kg/injection, schedule: Q01DX001 (ip), vehicle: saline 100 % of control

O=c1c2c([nH]c3ccccc13)CCCC2
inactive: [3] 97 % of control | [4] 97 % of control | [5] 88 % of control | [6] 94 % of control | [7] 93 % of control | [8] 101 % of control

c1ccc2c(c1)C1CCCCC2c2ccccc21
inactive: [3] 102 % of control | [5] 97 % of control | [7] 100 % of control

CC(C)(C)N=C1OC(=O)c2ccccc21
inactive: [9] 107 % of control | [10] 98 % of control | [11] 94 % of control

O=C(OCC1CCCO1)c1ccccc1O (stereo not drawn)
inactive: [4] 100 % of control | [6] 100 % of control | [8] 95 % of control

CC(NC(N)=O)C(=O)O (stereo not drawn)
inactive: dose: 100.0 mg/kg/injection, schedule: Q04DX002 (ip), vehicle: saline 89 % of control | dose: 200.0 mg/kg/injection, schedule: Q04DX002 (ip), vehicle: saline 104 % of control | dose: 400.0 mg/kg/injection, schedule: Q04DX002 (ip), vehicle: saline 93 % of control

O=C(Nc1ccccc1F)OCCOc1ccc([N+](=O)[O-])cc1
inactive: [12] 96 % of control | [13] 100 % of control | [14] 94 % of control

COC1C(O)C(C)OC(O[C@@H]2C[C@H]3CC[C@@H]4[C@H](CC[C@]5(C)[C@@H](C6=CC(=O)OC6)CC[C@]45O)[C@@]3(C)[C@H](O)C2)C1O (stereo partly drawn)
inactive: dose: 0.63 mg/kg/injection, schedule: Q01DX001 (ip), vehicle: saline 103 % of control | dose: 1.25 mg/kg/injection, schedule: Q01DX001 (ip), vehicle: saline 101 % of control | dose: 2.5 mg/kg/injection, schedule: Q01DX001 (ip), vehicle: saline 97 % of control | dose: 5.0 mg/kg/injection, schedule: Q01DX001 (ip), vehicle: saline 94 % of control | dose: 10.0 mg/kg/injection, schedule: Q01DX001 (ip), vehicle: saline 103 % of control | dose: 20.0 mg/kg/injection, schedule: Q01DX001 (ip), vehicle: saline 106 % of control | dose: 40.0 mg/kg/injection, schedule: Q01DX001 (ip), vehicle: saline 111 % of control | dose: 80.0 mg/kg/injection, schedule: Q01DX001 (ip), vehicle: saline 101 % of control

O=C(Nc1ccccc1)N(Cc1ccccc1)c1ccccc1
inactive: [9] 90 % of control | [15] 101 % of control | [10] 89 % of control | [16] 101 % of control | [11] 96 % of control | dose: 400.0 mg/kg/injection, schedule: Q04DX003 (ip), vehicle: saline with Tween-80 86 % of control

CCOC(=O)CCN(C(=O)Nc1ccccc1)C1CCCCC1
inactive: dose: 100.0 mg/kg/injection, schedule: Q01DX Z (ip), vehicle: methylcellulose (MC) 92 % of control | dose: 200.0 mg/kg/injection, schedule: Q01DX Z (ip), vehicle: methylcellulose (MC) 97 % of control

O=C(Sc1cccc(Br)c1)c1ccccc1
inactive: [17] 100 % of control | [18] 95 % of control | [19] 94 % of control

O/N=C/c1nc2ccccc2[nH]1
inactive: dose: 75.0 mg/kg/injection, schedule: Q01DX001 (ip), vehicle: other 90 % of control | dose: 150.0 mg/kg/injection, schedule: Q01DX001 (ip), vehicle: other 90 % of control | dose: 300.0 mg/kg/injection, schedule: Q01DX001 (ip), vehicle: other 95 % of control

CCOc1ccn(C2OC(CI)C(OC3OC(COC(C)=O)C(OC(C)=O)C(OC(C)=O)C3OC(C)=O)C(OC(C)=O)C2OC(C)=O)c(=O)n1 (stereo not drawn)
inactive: dose: 22.5 mg/kg/injection, schedule: Q01DX001 (ip), vehicle: carboxymethylcellulose (CMC) 100 % of control | dose: 45.0 mg/kg/injection, schedule: Q01DX001 (ip), vehicle: carboxymethylcellulose (CMC) 100 % of control | dose: 90.0 mg/kg/injection, schedule: Q01DX001 (ip), vehicle: carboxymethylcellulose (CMC) 97 % of control | dose: 180.0 mg/kg/injection, schedule: Q01DX001 (ip), vehicle: carboxymethylcellulose (CMC) 103 % of control

O=C(c1ccccc1)C1CCCCCC1
inactive: [12] 108 % of control | [4] 94 % of control | [13] 102 % of control | [6] 98 % of control | [14] 104 % of control | [8] 98 % of control

C/C=C1\CN(C)[C@H]2Cc3c([nH]c4ccccc34)[C@@H](c3cc4[nH]c5c(c4cc3OC)CCN3C[C@H]4C[C@H](CC)[C@H]3[C@@]5(C(=O)OC)C4)C[C@H]1C2C(=O)OC (stereo partly drawn)
inactive: dose: 30.0 mg/kg/injection, schedule: Q01DX Z (ip), vehicle: water 106 % of control | dose: 45.0 mg/kg/injection, schedule: Q01DX Z (ip), vehicle: water 100 % of control and 102 % of control | dose: 45.0 mg/kg/injection, schedule: Q02DX Z (ip), vehicle: water 101 % of control | dose: 60.0 mg/kg/injection, schedule: Q01DX Z (ip), vehicle: water 96 % of control and 101 % of control | dose: 60.0 mg/kg/injection, schedule: Q02DX Z (ip), vehicle: water 104 % of control | dose: 70.0 mg/kg/injection, schedule: Q02DX Z (ip), vehicle: water 102 % of control | dose: 75.0 mg/kg/injection, schedule: Q01DX Z (ip), vehicle: water 100 % of control | dose: 90.0 mg/kg/injection, schedule: Q01DX Z (ip), vehicle: water 100 % of control

COc1cc2c(cc1OC)C(C(N)=O)NCC2 (stereo not drawn)
inactive: [17] 101 % of control | [18] 97 % of control | [19] 93 % of control

COC(=O)c1ccc[n+](CC(=O)c2ccccc2)c1
inactive: [15] 95 % of control | [16] 88 % of control

O=C1C2(Cl)C3(Cl)C4(Cl)C(Cl)(Cl)C5(Cl)[C@]3(Cl)C1(Cl)[C@]5(Cl)C24Cl (stereo partly drawn)
inactive: [1] 102 % of control | [2] 96 % of control

OCCCCCCCCCCCO
inactive: dose: 100.0 mg/kg/injection, schedule: Q04DX003 (ip), vehicle: saline 100 % of control | dose: 200.0 mg/kg/injection, schedule: Q04DX003 (ip), vehicle: saline 93 % of control | dose: 400.0 mg/kg/injection, schedule: Q04DX003 (ip), vehicle: saline 93 % of control

C/C=C/C=C/C=N/N=C(N)N
inactive: dose: 15.0 mg/kg/injection, schedule: Q01DX Z (ip), vehicle: carboxymethylcellulose (CMC) 97 % of control | dose: 30.0 mg/kg/injection, schedule: Q01DX Z (oral), vehicle: carboxymethylcellulose (CMC) 109 % of control | dose: 60.0 mg/kg/injection, schedule: Q01DX Z (oral), vehicle: carboxymethylcellulose (CMC) 103 % of control | dose: 120.0 mg/kg/injection, schedule: Q01DX Z (oral), vehicle: carboxymethylcellulose (CMC) 103 % of control and 112 % of control | dose: 240.0 mg/kg/injection, schedule: Q01DX Z (oral), vehicle: carboxymethylcellulose (CMC) 102 % of control and 107 % of control

COC(=O)CCC(NC(=O)c1ccc(NCc2cnc3nc(N)n(C)c(=O)c3n2)cc1)C(=O)OC (stereo not drawn)
inactive: dose: 100.0 mg/kg/injection, schedule: Q01DX001 (ip), vehicle: saline with Tween-80 106 % of control | dose: 200.0 mg/kg/injection, schedule: Q01DX001 (ip), vehicle: saline with Tween-80 104 % of control | dose: 400.0 mg/kg/injection, schedule: Q01DX001 (ip), vehicle: saline with Tween-80 101 % of control

CCCCC(=O)N/N=C/c1ccc(Cl)c(Cl)c1
inactive: dose: 100.0 mg/kg/injection, schedule: Q01DX001 (ip), vehicle: carboxymethylcellulose (CMC) 88 % of control | dose: 200.0 mg/kg/injection, schedule: Q01DX001 (ip), vehicle: carboxymethylcellulose (CMC) 110 % of control | dose: 400.0 mg/kg/injection, schedule: Q01DX001 (ip), vehicle: carboxymethylcellulose (CMC) 91 % of control
